{"source": "PubChem BioAssay (NCI)", "assay_in_all_cases": "NCI-60 cell line screen, 48 h", "key": {"[1]": {"tested_on": "COLO 205 colon"}, "[2]": {"tested_on": "HCT-116 colon"}, "[3]": {"tested_on": "KM12 colon"}, "[4]": {"tested_on": "HT29 colon"}, "[5]": {"tested_on": "SF-295 CNS"}, "[6]": {"tested_on": "RPMI-8226 leukemia"}, "[7]": {"tested_on": "CCRF-CEM leukemia"}, "[8]": {"tested_on": "CAKI-1 renal"}, "[9]": {"tested_on": "NCI-H522 lung"}, "[10]": {"tested_on": "UO-31 renal"}, "[11]": {"tested_on": "HOP-62 NSCLC"}, "[12]": {"tested_on": "SNB-75 CNS"}, "[13]": {"tested_on": "MALME-3M melanoma"}, "[14]": {"tested_on": "OVCAR-8 ovarian"}, "[15]": {"tested_on": "MDA-MB-231 breast"}, "[16]": {"tested_on": "SN12C renal"}, "[17]": {"tested_on": "HOP-92 NSCLC"}, "[18]": {"tested_on": "M14 melanoma"}, "[19]": {"tested_on": "LOX IMVI melanoma"}, "[20]": {"tested_on": "SNB-19 CNS"}, "[21]": {"tested_on": "OVCAR-5 ovarian"}, "[22]": {"tested_on": "786-0 renal"}, "[23]": {"tested_on": "NCI-H460 lung"}, "[24]": {"tested_on": "RXF 393 renal"}, "[25]": {"tested_on": "UACC-257 melanoma"}, "[26]": {"tested_on": "TK-10 renal"}, "[27]": {"tested_on": "NCI-H226 lung"}, "[28]": {"tested_on": "SK-MEL-2 melanoma"}, "[29]": {"tested_on": "DU-145 prostate"}, "[30]": {"tested_on": "EKVX NSCLC"}, "[31]": {"tested_on": "HS 578T breast"}, "[32]": {"tested_on": "NCI-H23 lung"}, "[33]": {"tested_on": "A549 NSCLC"}, "[34]": {"tested_on": "ACHN renal"}, "[35]": {"tested_on": "HCC-2998 colon"}, "[36]": {"tested_on": "BT-549 breast"}, "[37]": {"tested_on": "MDA-N"}, "[38]": {"tested_on": "PC-3 prostate"}, "[39]": {"tested_on": "OVCAR-3 ovarian"}, "[40]": {"tested_on": "UACC-62 melanoma"}, "[41]": {"tested_on": "SF-539 CNS"}, "[42]": {"tested_on": "HL-60(TB) leukemia"}, "[43]": {"tested_on": "U251 CNS"}, "[44]": {"tested_on": "HCT-15 colon"}, "[45]": {"tested_on": "SK-MEL-5 melanoma"}, "[46]": {"tested_on": "A498 renal"}, "[47]": {"tested_on": "SK-OV-3 ovarian"}, "[48]": {"tested_on": "SF-268 CNS"}, "[49]": {"tested_on": "MCF7 breast"}, "[50]": {"tested_on": "OVCAR-4 ovarian"}, "[51]": {"tested_on": "SW-620 colon"}, "[52]": {"tested_on": "K-562 leukemia"}, "[53]": {"tested_on": "IGROV1 ovarian"}, "[54]": {"tested_on": "MOLT-4 leukemia"}, "[55]": {"tested_on": "SK-MEL-28 melanoma"}, "[56]": {"tested_on": "MDA-MB-435"}, "[57]": {"tested_on": "T-47D breast"}, "[58]": {"tested_on": "NCI/ADR-RES ovarian"}}, "note": "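Assay format: 96-well plates, 48-hour exposure. At the TGI there is no net growth.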"}
{"smiles": "CC1=C(C2=C(C)C(=O)C(=O)c3cc(C)ccc32)c2ccc(C)cc2C(=O)C1=O", "values": [{"measurement": "TGI", "setting": "[1]", "value": 0.525, "unit": "µM"}, {"measurement": "TGI", "setting": "[2]", "value": 1, "unit": "µM"}, {"measurement": "TGI", "setting": "[3]", "value": 0.447, "unit": "µM"}, {"measurement": "TGI", "setting": "[4]", "value": 0.705, "unit": "µM"}, {"measurement": "TGI", "setting": "[5]", "value": 0.373, "unit": "µM"}, {"measurement": "TGI", "setting": "[6]", "value": 0.705, "unit": "µM"}, {"measurement": "TGI", "setting": "[7]", "value": "> 100", "unit": "µM"}, {"measurement": "TGI", "setting": "[8]", "value": 0.328, "unit": "µM"}, {"measurement": "TGI", "setting": "[9]", "value": 0.631, "unit": "µM"}, {"measurement": "TGI", "setting": "[10]", "value": 0.305, "unit": "µM"}, {"measurement": "TGI", "setting": "[11]", "value": 2.59, "unit": "µM"}, {"measurement": "TGI", "setting": "[12]", "value": 0.868, "unit": "µM"}, {"measurement": "TGI", "setting": "[13]", "value": 0.435, "unit": "µM"}, {"measurement": "TGI", "setting": "[14]", "value": 0.54, "unit": "µM"}, {"measurement": "TGI", "setting": "[15]", "value": 0.91, "unit": "µM"}, {"measurement": "TGI", "setting": "[16]", "value": 0.314, "unit": "µM"}, {"measurement": "TGI", "setting": "[17]", "value": 0.398, "unit": "µM"}, {"measurement": "TGI", "setting": "[18]", "value": 0.349, "unit": "µM"}, {"measurement": "TGI", "setting": "[19]", "value": "> 100", "unit": "µM"}, {"measurement": "TGI", "setting": "[20]", "value": 0.31, "unit": "µM"}, {"measurement": "TGI", "setting": "[21]", "value": 0.45, "unit": "µM"}, {"measurement": "TGI", "setting": "[22]", "value": 1.45, "unit": "µM"}, {"measurement": "TGI", "setting": "[23]", "value": 0.531, "unit": "µM"}, {"measurement": "TGI", "setting": "[24]", "value": 0.62, "unit": "µM"}, {"measurement": "TGI", "setting": "[25]", "value": 0.382, "unit": "µM"}, {"measurement": "TGI", "setting": "[26]", "value": 1.2, "unit": "µM"}, {"measurement": "TGI", "setting": "[27]", "value": 6.48, "unit": "µM"}, {"measurement": "TGI", "setting": "[28]", "value": 0.877, "unit": "µM"}, {"measurement": "TGI", "setting": "[29]", "value": 2.84, "unit": "µM"}, {"measurement": "TGI", "setting": "[30]", "value": 0.686, "unit": "µM"}, {"measurement": "TGI", "setting": "[31]", "value": 0.863, "unit": "µM"}, {"measurement": "TGI", "setting": "[32]", "value": 0.442, "unit": "µM"}, {"measurement": "TGI", "setting": "[33]", "value": 2.73, "unit": "µM"}, {"measurement": "TGI", "setting": "[34]", "value": 0.354, "unit": "µM"}, {"measurement": "TGI", "setting": "[35]", "value": 0.298, "unit": "µM"}, {"measurement": "TGI", "setting": "[36]", "value": 0.374, "unit": "µM"}, {"measurement": "TGI", "setting": "[37]", "value": 0.347, "unit": "µM"}, {"measurement": "TGI", "setting": "[38]", "value": 1.04, "unit": "µM"}, {"measurement": "TGI", "setting": "[39]", "value": 0.323, "unit": "µM"}, {"measurement": "TGI", "setting": "[40]", "value": 0.381, "unit": "µM"}, {"measurement": "TGI", "setting": "[41]", "value": 0.346, "unit": "µM"}, {"measurement": "TGI", "setting": "[42]", "value": "> 100", "unit": "µM"}, {"measurement": "TGI", "setting": "[43]", "value": 0.685, "unit": "µM"}, {"measurement": "TGI", "setting": "[44]", "value": "> 100", "unit": "µM"}, {"measurement": "TGI", "setting": "[45]", "value": 0.374, "unit": "µM"}, {"measurement": "TGI", "setting": "[46]", "value": 3.25, "unit": "µM"}, {"measurement": "TGI", "setting": "[47]", "value": 3.07, "unit": "µM"}]}
{"smiles": "O=c1nc2n(cc1/C=C\\Br)C1CC(O)C(CO2)O1", "note": "(centres undefined)", "values": [{"measurement": "TGI", "setting": "[1]", "value": "> 100", "unit": "µM"}, {"measurement": "TGI", "setting": "[2]", "value": "> 100", "unit": "µM"}, {"measurement": "TGI", "setting": "[3]", "value": "> 100", "unit": "µM"}, {"measurement": "TGI", "setting": "[4]", "value": "> 100", "unit": "µM"}, {"measurement": "TGI", "setting": "[5]", "value": "> 100", "unit": "µM"}, {"measurement": "TGI", "setting": "[6]", "value": "> 100", "unit": "µM"}, {"measurement": "TGI", "setting": "[48]", "value": "> 100", "unit": "µM"}, {"measurement": "TGI", "setting": "[7]", "value": "> 100", "unit": "µM"}, {"measurement": "TGI", "setting": "[8]", "value": "> 100", "unit": "µM"}, {"measurement": "TGI", "setting": "[10]", "value": "> 100", "unit": "µM"}, {"measurement": "TGI", "setting": "[11]", "value": "> 100", "unit": "µM"}, {"measurement": "TGI", "setting": "[12]", "value": "> 100", "unit": "µM"}, {"measurement": "TGI", "setting": "[13]", "value": "> 100", "unit": "µM"}, {"measurement": "TGI", "setting": "[14]", "value": "> 100", "unit": "µM"}, {"measurement": "TGI", "setting": "[49]", "value": "> 100", "unit": "µM"}, {"measurement": "TGI", "setting": "[50]", "value": "> 100", "unit": "µM"}, {"measurement": "TGI", "setting": "[15]", "value": "> 100", "unit": "µM"}, {"measurement": "TGI", "setting": "[51]", "value": "> 100", "unit": "µM"}, {"measurement": "TGI", "setting": "[52]", "value": "> 100", "unit": "µM"}, {"measurement": "TGI", "setting": "[16]", "value": "> 100", "unit": "µM"}, {"measurement": "TGI", "setting": "[19]", "value": "> 100", "unit": "µM"}, {"measurement": "TGI", "setting": "[20]", "value": "> 100", "unit": "µM"}, {"measurement": "TGI", "setting": "[21]", "value": "> 100", "unit": "µM"}, {"measurement": "TGI", "setting": "[22]", "value": "> 100", "unit": "µM"}, {"measurement": "TGI", "setting": "[23]", "value": "> 100", "unit": "µM"}, {"measurement": "TGI", "setting": "[24]", "value": 57, "unit": "µM"}, {"measurement": "TGI", "setting": "[25]", "value": "> 100", "unit": "µM"}, {"measurement": "TGI", "setting": "[26]", "value": "> 100", "unit": "µM"}, {"measurement": "TGI", "setting": "[27]", "value": "> 100", "unit": "µM"}, {"measurement": "TGI", "setting": "[29]", "value": "> 100", "unit": "µM"}, {"measurement": "TGI", "setting": "[30]", "value": "> 100", "unit": "µM"}, {"measurement": "TGI", "setting": "[53]", "value": "> 100", "unit": "µM"}, {"measurement": "TGI", "setting": "[54]", "value": "> 100", "unit": "µM"}, {"measurement": "TGI", "setting": "[32]", "value": "> 100", "unit": "µM"}, {"measurement": "TGI", "setting": "[33]", "value": "> 100", "unit": "µM"}, {"measurement": "TGI", "setting": "[34]", "value": "> 100", "unit": "µM"}, {"measurement": "TGI", "setting": "[35]", "value": "> 100", "unit": "µM"}, {"measurement": "TGI", "setting": "[55]", "value": "> 100", "unit": "µM"}, {"measurement": "TGI", "setting": "[36]", "value": "> 100", "unit": "µM"}, {"measurement": "TGI", "setting": "[37]", "value": "> 100", "unit": "µM"}, {"measurement": "TGI", "setting": "[39]", "value": "> 100", "unit": "µM"}, {"measurement": "TGI", "setting": "[40]", "value": "> 100", "unit": "µM"}, {"measurement": "TGI", "setting": "[41]", "value": "> 100", "unit": "µM"}, {"measurement": "TGI", "setting": "[42]", "value": 54.8, "unit": "µM"}, {"measurement": "TGI", "setting": "[56]", "value": "> 100", "unit": "µM"}, {"measurement": "TGI", "setting": "[43]", "value": "> 100", "unit": "µM"}, {"measurement": "TGI", "setting": "[44]", "value": "> 100", "unit": "µM"}, {"measurement": "TGI", "setting": "[45]", "value": "> 100", "unit": "µM"}, {"measurement": "TGI", "setting": "[57]", "value": "> 100", "unit": "µM"}, {"measurement": "TGI", "setting": "[46]", "value": "> 100", "unit": "µM"}, {"measurement": "TGI", "setting": "[58]", "value": "> 100", "unit": "µM"}, {"measurement": "TGI", "setting": "[47]", "value": "> 100", "unit": "µM"}]}
